Like-named read-outs stand apart in the source and are kept apart here.
Legend:
HIV NL4.3 strain = experiment: HIV infectivity assay, reporter cell line HeLa-CD4-LTR-LacZ, β-Gal activity (Tat protein inhibition); format: cell-based, HIV-1 (NL4.3); conditions: Human immunodeficiency virus 1, read-out: Infectivity IC50, HeLa-CD4-LTR-LacZ
Procedure: (§1) Next, the activity of these leads against HIV infection was evaluated using the reporter cell line HeLa-CD4-LTR-LacZ, which stably expresses the β-galactosidase (β-Gal) gene under the control of the HIV 5′ LTR. The HIV NL4.3 strain was used for these studies and β-Gal activity was measured 72 hrs post infection (FIG. 3A). Cytotoxicity assays using Cell-Titer-Glo were performed in parallel to assess cell viability (FIG. 3A). […] Their anti-HIV activity was further assessed in acute replication of Jurkat T cells with the NL4.3 strain (FIG. 3A). […] These OM10.1 cells contain a single integrated wild-type provirus, while ACH-2 cells contain a single integrated provirus with a TAR mutation C37T, defective Tat-TAR feedback loop (FIG. 3B).

[1] = Cytotoxicity assay, Cell-Titer-Glo, HeLa-CD4-LTR-LacZ; conditions: human, hela-cd4-ltr-lacz cells, Infectivity CC50, HeLa-CD4-LTR-LacZ
Procedure: as §1

Structure (SMILES): COc1ccc(C(F)(F)F)cc1NC(=O)Cn1cc(C(F)(F)F)cc(F)c1=O [compound 47033]
- IC50 (HIV NL4.3 strain; analogs of TT-44863 (Table 2)): 1 to 10 µM
- CC50 ([1]; analogs of TT-44863 (Table 2)): 50 to 100 µM

Structure (SMILES): O=C(NCCCN1CCCC1=O)c1nn(-c2ccccc2)c2c1CCCC2 [compound 46819]
- IC50 (HIV NL4.3 strain; analogs of TT-44881 (Table 1)): > 50 µM
- CC50 ([1]; analogs of TT-44881 (Table 1)): > 50 µM

Structure (SMILES): CCCN(CCCN1CCCC1=O)C(=O)c1cc(C)n(-c2ccccc2)n1 [GB-17]
- IC50 (HIV NL4.3 strain; analogs of TT-44881 (Table 1)): > 100 µM
- CC50 ([1]; analogs of TT-44881 (Table 1)): > 100 µM

Structure (SMILES): N#Cc1ccc(CNC(=O)c2cn(-c3ccccc3)c3ccccc23)cc1 [compound 41969]
- IC50 (HIV NL4.3 strain; analogs of TT-44881 (Table 1)): 12.4 µM
- CC50 ([1]; analogs of TT-44881 (Table 1)): > 100 µM

Structure (SMILES): O=C(NCCCN1CCCC1=O)c1nc2ccccc2n1-c1ccccc1 [compound 47051]
- IC50 (HIV NL4.3 strain; analogs of TT-44881 (Table 1)): > 25 µM
- CC50 ([1]; analogs of TT-44881 (Table 1)): > 25 µM

Structure (SMILES): O=C(NCCCN1CCCC1=O)c1nn(-c2ccccc2)cc1C(F)(F)F [compound 46979]
- IC50 (HIV NL4.3 strain; analogs of TT-44881 (Table 1)): 50 to 100 µM
- CC50 ([1]; analogs of TT-44881 (Table 1)): > 100 µM

Structure (SMILES): CS(=O)(=O)N1CCN(C(=O)c2cn(-c3ccccc3)c3ccccc23)CC1 [compound 41798]
- IC50 (HIV NL4.3 strain; analogs of TT-44881 (Table 1)): > 100 µM
- CC50 ([1]; analogs of TT-44881 (Table 1)): > 100 µM

Structure (SMILES): O=C(NCCCN1CCCC1=O)c1n[nH]c2c1CCC2 [compound 46727]
- IC50 (HIV NL4.3 strain; analogs of TT-44881 (Table 1)): > 100 µM
- CC50 ([1]; analogs of TT-44881 (Table 1)): > 100 µM

Structure (SMILES): CCC(C(=O)NCCCn1cnc2ccccc21)(c1ccccc1)c1ccccc1 [3-70]
- IC50 (HIV NL4.3 strain; analogs of TT-44856 (Table 3)): 20 to 50 µM
- CC50 ([1]; analogs of TT-44856 (Table 3)): 50 to 100 µM

Structure (SMILES): CCOC(=O)c1sc(NC(=O)Cn2cc(C(F)(F)F)cc(Cl)c2=O)nc1C(F)(F)F [compound 47063]
- IC50 (HIV NL4.3 strain; analogs of TT-44863 (Table 2)): 23.7 µM
- CC50 ([1]; analogs of TT-44863 (Table 2)): 25 to 50 µM

Structure (SMILES): COc1ccc(C(F)(F)F)cc1CNC(=O)Cn1cc(C)cc(Cl)c1=O [compound 46957]
- IC50 (HIV NL4.3 strain; analogs of TT-44863 (Table 2)): > 50 µM
- CC50 ([1]; analogs of TT-44863 (Table 2)): > 50 µM

Structure (SMILES): O=C(Cn1cc(C(F)(F)F)cc(Cl)c1=O)Nc1cc(C(F)(F)F)ccc1OCCN1CCOCC1 [compound 51]
- IC50 (HIV NL4.3 strain; analogs of TT-44863 (Table 2)): 1 to 10 µM
- CC50 ([1]; analogs of TT-44863 (Table 2)): 50 to 100 µM

Structure (SMILES): O=C(NCCCN1CCCC1=O)c1cn(-c2ccccc2)c2ncc(F)cc12 [compound 46879]
- IC50 (HIV NL4.3 strain; analogs of TT-44881 (Table 1)): 1 to 50 µM
- CC50 ([1]; analogs of TT-44881 (Table 1)): > 100 µM

Structure (SMILES): O=C(NCCCN1CCCC1=O)c1nc2ccccc2[nH]c1=O [compound 46931]
- IC50 (HIV NL4.3 strain; analogs of TT-44881 (Table 1)): 10 to 30 µM
- CC50 ([1]; analogs of TT-44881 (Table 1)): > 100 µM

Structure (SMILES): Cc1ccc(C(F)(F)F)cc1NC(=O)Cn1cc(C(F)(F)F)cc(Cl)c1=O [compound 47001]
- IC50 (HIV NL4.3 strain; analogs of TT-44863 (Table 2)): 1 to 10 µM
- CC50 ([1]; analogs of TT-44863 (Table 2)): > 100 µM

Structure (SMILES): CC(NC(=O)C(C)(c1ccccc1)c1ccccc1)c1ccccc1 (centres unmarked) [3-47]
- IC50 (HIV NL4.3 strain; analogs of TT-44856 (Table 3)): 10 to 30 µM
- CC50 ([1]; analogs of TT-44856 (Table 3)): > 100 µM

Structure (SMILES): COCCOc1ccccc1NC(=O)Cn1cc(C(F)(F)F)cc(Cl)c1=O [compound 46624]
- IC50 (HIV NL4.3 strain; analogs of TT-44863 (Table 2)): > 100 µM
- CC50 ([1]; analogs of TT-44863 (Table 2)): > 100 µM

Structure (SMILES): CCn1nc(C(=O)NCCCN2CCCC2=O)c2c1CCC2 [compound 46932]
- IC50 (HIV NL4.3 strain; analogs of TT-44881 (Table 1)): > 100 µM
- CC50 ([1]; analogs of TT-44881 (Table 1)): > 100 µM

Structure (SMILES): O=C(NCCCN1CCCC1=O)c1nn(CC2CCC2)c2c1CCC2 [compound 46933]
- IC50 (HIV NL4.3 strain; analogs of TT-44881 (Table 1)): > 100 µM
- CC50 ([1]; analogs of TT-44881 (Table 1)): > 100 µM

Structure (SMILES): COCCOc1ccc(C(F)(F)F)cc1NC(=O)Cn1cccc(Cl)c1=O [compound 46704]
- IC50 (HIV NL4.3 strain; analogs of TT-44863 (Table 2)): > 100 µM
- CC50 ([1]; analogs of TT-44863 (Table 2)): > 100 µM

Structure (SMILES): O=C(NCCCn1ccnc1)C1c2ccccc2Oc2ccccc21 [3-61]
- IC50 (HIV NL4.3 strain; analogs of TT-44856 (Table 3)): > 100 µM
- CC50 ([1]; analogs of TT-44856 (Table 3)): > 100 µM

Structure (SMILES): COc1ccc(C(F)(F)F)cc1NC(=O)Cn1cc(C(F)(F)F)ccc1=O [compound 46917]
- IC50 (HIV NL4.3 strain; analogs of TT-44863 (Table 2)): 1 to 30 µM
- CC50 ([1]; analogs of TT-44863 (Table 2)): > 100 µM

Structure (SMILES): O=C(NCCCN1CCCC1=O)c1nn(-c2ccccc2)c2c1CCC1(C2)OCCO1 [GB-10]
- IC50 (HIV NL4.3 strain; analogs of TT-44881 (Table 1)): > 100 µM
- CC50 ([1]; analogs of TT-44881 (Table 1)): > 100 µM

Structure (SMILES): CCN(CCCN1CCCC1=O)C(=O)c1cc(C)n(-c2ccccc2)n1 [GB-16]
- IC50 (HIV NL4.3 strain; analogs of TT-44881 (Table 1)): > 100 µM
- CC50 ([1]; analogs of TT-44881 (Table 1)): > 100 µM

Structure (SMILES): CC(=O)c1cccc(CNC(=O)c2cn(-c3ccccc3)c3ccccc23)c1 [compound 41967]
- IC50 (HIV NL4.3 strain; analogs of TT-44881 (Table 1)): > 100 µM
- CC50 ([1]; analogs of TT-44881 (Table 1)): > 100 µM

Structure (SMILES): O=C(NCCCn1ccnc1)c1cc(O)c2cc(Cl)ccc2n1 [3-38]
- IC50 (HIV NL4.3 strain; analogs of TT-44856 (Table 3)): > 100 µM
- CC50 ([1]; analogs of TT-44856 (Table 3)): > 100 µM

Structure (SMILES): COc1ccccc1NC(=O)Cn1cc(C(F)(F)F)cc(Cl)c1=O [compound 46605]
- IC50 (HIV NL4.3 strain; analogs of TT-44863 (Table 2)): > 100 µM
- CC50 ([1]; analogs of TT-44863 (Table 2)): > 100 µM

Structure (SMILES): CC(C)c1nn(-c2ccccc2)cc1C(=O)NCCCN1CCCC1=O [compound 47092]
- IC50 (HIV NL4.3 strain; analogs of TT-44881 (Table 1)): > 100 µM
- CC50 ([1]; analogs of TT-44881 (Table 1)): > 100 µM

Structure (SMILES): O=C(NCCCn1ccnc1)c1cc2cccnc2[nH]1 [3-37]
- IC50 (HIV NL4.3 strain; analogs of TT-44856 (Table 3)): > 100 µM
- CC50 ([1]; analogs of TT-44856 (Table 3)): > 100 µM

Structure (SMILES): CCC(C(=O)NCCCn1ccnc1C)(c1ccccc1)c1ccccc1 [3-69]
- IC50 (HIV NL4.3 strain; analogs of TT-44856 (Table 3)): 1 to 10 µM
- CC50 ([1]; analogs of TT-44856 (Table 3)): > 100 µM

Structure (SMILES): Cc1cc(C(=O)NCCCN2CCCC2=O)nn1-c1ccccc1 [GB-14]
- IC50 (HIV NL4.3 strain; analogs of TT-44881 (Table 1)): > 100 µM
- CC50 ([1]; analogs of TT-44881 (Table 1)): > 100 µM

Structure (SMILES): O=C(NCCCn1ccnc1)C1c2ccccc2-c2ccccc21 [3-35]
- IC50 (HIV NL4.3 strain; analogs of TT-44856 (Table 3)): 50 to 100 µM
- CC50 ([1]; analogs of TT-44856 (Table 3)): > 100 µM

Structure (SMILES): O=C(NCCCn1ccnc1)c1n[nH]c2c1CCC2 [compound 46726]
- IC50 (HIV NL4.3 strain; analogs of TT-44881 (Table 1)): > 100 µM
- CC50 ([1]; analogs of TT-44881 (Table 1)): > 100 µM

Structure (SMILES): CCCCOCCC(C(=O)NCCCn1ccnc1)(c1ccccc1)c1ccccc1 [3-75]
- IC50 (HIV NL4.3 strain; analogs of TT-44856 (Table 3)): 50 to 100 µM
- CC50 ([1]; analogs of TT-44856 (Table 3)): > 100 µM

From patent US20260355184A1, “SMALL MOLECULE DEGRADERS OF HIV-1 TAT PROTEIN” (priority 2022, published 2026)
